Reference: US20230295119A1, “SUBSTITUTED PYRIDINES FOR THE TREATMENT OF INFLAMMATORY DISEASES” (GOSSAMER BIO SERVICES, INC., priority 2020, published 2023)

How the values were obtained:
TYK2 JH2 domain = TYK2 JH2 domain (Homo sapiens (Human), UniProt P29597); assay: TYK2 JH2 NanoBRET assay; format: binding; conditions: Table 20, read-out: TYK2 IC50
In short: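 Tracer displacement measured by BRET ratio (acceptor over donor) in live HEK293T cells transfected with a NanoLuc-tagged TYK2 JH2 construct; cells co-exposed to test compound and 0.5 µM final K10 tracer for 2 h before substrate/extracellular inhibitor addition.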

human JAK2 = human JAK2 (Homo sapiens (Human), UniProt O60674); assay: JAK2 TR-FRET kinase assay; format: biochemical; conditions: JAK2 0.025 nM
human JAK2, sequence (O60674 whole entry): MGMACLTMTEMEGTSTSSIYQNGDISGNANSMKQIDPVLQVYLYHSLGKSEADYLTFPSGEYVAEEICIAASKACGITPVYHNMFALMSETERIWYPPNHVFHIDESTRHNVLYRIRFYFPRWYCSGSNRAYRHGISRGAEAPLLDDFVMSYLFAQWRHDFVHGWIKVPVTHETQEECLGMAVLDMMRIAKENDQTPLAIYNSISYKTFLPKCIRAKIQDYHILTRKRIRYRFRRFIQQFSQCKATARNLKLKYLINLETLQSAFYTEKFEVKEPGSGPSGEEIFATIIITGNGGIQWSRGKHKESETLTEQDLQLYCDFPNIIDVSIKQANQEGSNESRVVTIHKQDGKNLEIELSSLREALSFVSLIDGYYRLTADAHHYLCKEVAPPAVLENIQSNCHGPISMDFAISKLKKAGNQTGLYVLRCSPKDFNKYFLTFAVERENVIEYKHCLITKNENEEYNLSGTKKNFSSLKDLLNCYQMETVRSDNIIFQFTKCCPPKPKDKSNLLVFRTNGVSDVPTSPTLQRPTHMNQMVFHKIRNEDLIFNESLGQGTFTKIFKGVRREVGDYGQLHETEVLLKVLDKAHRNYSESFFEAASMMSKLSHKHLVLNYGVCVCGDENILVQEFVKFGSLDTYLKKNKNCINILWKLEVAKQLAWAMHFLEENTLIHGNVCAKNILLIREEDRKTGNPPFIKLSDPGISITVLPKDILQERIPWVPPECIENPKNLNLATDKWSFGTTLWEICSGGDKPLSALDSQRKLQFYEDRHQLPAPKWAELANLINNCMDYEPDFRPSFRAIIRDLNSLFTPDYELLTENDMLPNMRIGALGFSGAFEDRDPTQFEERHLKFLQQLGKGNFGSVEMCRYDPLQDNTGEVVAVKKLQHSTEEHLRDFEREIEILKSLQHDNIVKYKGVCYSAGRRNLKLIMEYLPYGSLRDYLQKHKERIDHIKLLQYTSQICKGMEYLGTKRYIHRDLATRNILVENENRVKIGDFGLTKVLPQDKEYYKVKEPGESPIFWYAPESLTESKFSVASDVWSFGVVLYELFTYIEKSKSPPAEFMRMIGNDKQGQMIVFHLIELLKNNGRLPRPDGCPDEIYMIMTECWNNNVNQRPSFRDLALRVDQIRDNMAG

human JAK1 = human JAK1 (Homo sapiens (Human), UniProt P23458); assay: JAK1 TR-FRET kinase assay; format: biochemical; conditions: TR-FRET, JAK1 2.5 nM
human JAK1, sequence (P23458 whole entry): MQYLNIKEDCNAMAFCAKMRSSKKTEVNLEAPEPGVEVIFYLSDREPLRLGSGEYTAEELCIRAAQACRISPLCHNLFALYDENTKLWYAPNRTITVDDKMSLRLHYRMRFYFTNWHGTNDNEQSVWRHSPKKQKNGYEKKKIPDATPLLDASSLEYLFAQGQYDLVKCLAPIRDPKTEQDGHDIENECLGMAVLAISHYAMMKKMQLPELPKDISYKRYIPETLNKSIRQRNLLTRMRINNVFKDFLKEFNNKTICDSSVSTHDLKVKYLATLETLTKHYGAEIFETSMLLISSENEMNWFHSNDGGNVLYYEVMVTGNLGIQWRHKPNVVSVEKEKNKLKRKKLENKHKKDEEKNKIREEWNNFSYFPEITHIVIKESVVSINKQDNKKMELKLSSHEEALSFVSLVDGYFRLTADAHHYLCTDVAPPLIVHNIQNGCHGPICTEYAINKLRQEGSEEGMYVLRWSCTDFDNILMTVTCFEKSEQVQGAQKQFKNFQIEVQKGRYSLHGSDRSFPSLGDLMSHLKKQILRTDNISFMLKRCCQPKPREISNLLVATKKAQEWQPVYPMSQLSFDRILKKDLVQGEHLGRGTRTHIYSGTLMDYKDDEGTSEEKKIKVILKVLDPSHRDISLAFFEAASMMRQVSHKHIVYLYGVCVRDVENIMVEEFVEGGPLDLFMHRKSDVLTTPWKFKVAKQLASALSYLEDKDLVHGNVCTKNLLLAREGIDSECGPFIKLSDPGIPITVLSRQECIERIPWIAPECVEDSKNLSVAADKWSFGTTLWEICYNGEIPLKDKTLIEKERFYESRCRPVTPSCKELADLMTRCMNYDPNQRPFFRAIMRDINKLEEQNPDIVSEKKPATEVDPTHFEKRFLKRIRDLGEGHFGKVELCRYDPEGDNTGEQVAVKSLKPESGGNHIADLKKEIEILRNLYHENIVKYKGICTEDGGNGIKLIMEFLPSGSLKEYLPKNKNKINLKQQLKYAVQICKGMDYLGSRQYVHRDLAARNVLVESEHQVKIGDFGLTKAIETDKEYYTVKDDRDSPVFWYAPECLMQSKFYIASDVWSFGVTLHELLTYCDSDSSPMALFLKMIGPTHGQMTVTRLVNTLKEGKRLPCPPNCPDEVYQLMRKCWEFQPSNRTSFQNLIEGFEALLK

human JAK3 = human JAK3 (Homo sapiens (Human), UniProt P52333); assay: JAK3 TR-FRET kinase assay; format: biochemical; conditions: JAK3 0.0125 nM
human JAK3, sequence (P52333 whole entry): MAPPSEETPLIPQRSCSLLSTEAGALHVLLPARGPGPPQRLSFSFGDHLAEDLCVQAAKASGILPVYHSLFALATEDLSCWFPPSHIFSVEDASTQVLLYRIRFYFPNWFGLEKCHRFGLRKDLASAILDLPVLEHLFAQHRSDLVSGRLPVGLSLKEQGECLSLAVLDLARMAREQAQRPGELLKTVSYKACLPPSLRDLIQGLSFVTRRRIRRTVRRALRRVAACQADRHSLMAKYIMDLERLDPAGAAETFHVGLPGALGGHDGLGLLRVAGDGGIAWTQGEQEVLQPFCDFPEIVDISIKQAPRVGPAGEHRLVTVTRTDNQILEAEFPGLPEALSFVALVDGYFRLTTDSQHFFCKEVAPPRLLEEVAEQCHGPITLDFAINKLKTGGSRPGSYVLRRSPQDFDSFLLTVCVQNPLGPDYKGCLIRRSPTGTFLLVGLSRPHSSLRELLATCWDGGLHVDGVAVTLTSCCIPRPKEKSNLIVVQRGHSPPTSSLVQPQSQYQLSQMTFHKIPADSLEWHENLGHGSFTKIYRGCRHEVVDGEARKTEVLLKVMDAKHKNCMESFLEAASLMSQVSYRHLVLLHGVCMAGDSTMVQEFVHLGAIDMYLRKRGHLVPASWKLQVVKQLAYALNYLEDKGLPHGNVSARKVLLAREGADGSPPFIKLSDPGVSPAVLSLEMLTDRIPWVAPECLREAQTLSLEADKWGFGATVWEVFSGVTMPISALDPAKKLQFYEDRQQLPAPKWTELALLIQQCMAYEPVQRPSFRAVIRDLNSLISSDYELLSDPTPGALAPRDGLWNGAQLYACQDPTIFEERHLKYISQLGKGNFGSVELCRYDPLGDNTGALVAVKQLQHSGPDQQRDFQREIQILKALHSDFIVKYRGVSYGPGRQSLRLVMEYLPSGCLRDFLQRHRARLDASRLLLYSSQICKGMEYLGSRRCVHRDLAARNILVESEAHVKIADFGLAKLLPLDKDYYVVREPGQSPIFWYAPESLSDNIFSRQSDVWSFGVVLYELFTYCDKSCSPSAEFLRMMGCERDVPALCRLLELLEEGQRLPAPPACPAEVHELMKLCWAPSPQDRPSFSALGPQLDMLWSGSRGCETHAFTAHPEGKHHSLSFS

TYK2 JH2 domain, sequence (P29597 589-875): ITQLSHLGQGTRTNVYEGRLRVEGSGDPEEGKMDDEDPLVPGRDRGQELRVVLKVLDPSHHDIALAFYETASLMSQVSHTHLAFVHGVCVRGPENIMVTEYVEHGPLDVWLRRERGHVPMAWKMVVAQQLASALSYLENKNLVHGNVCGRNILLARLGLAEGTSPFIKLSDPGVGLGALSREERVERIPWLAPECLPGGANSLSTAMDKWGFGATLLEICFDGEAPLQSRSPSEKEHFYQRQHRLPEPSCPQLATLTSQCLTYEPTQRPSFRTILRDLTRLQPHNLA

Structure (SMILES)	IC50 (TYK2 JH2 domain)	IC50 (human JAK2)	IC50 (human JAK1)	IC50 (human JAK3)
COc1c(Nc2cc(Nc3ccc(OC[C@@H](O)CO)cn3)ncc2C(=O)C2CC2)cccc1-c1ncn(C)n1 [Compound 18I]	5 to 50 nM	≥ 500 nM	≥ 500 nM	≥ 500 nM
CCC(=O)c1cnc(Nc2cnc(O[C@@H]3CCN(C)C3)c(C)n2)cc1Nc1cccc(-c2ncn(C)n2)c1OC [Compound 18JJJ]	5 to 50 nM	≥ 500 nM	≥ 500 nM	≥ 500 nM
CCC(=O)c1cnc(Nc2ccnc(OC3CN(C)C3)n2)cc1Nc1cccc(-c2ncn(C)n2)c1OC [Compound 18JJ]	5 to 50 nM	≥ 500 nM	≥ 500 nM	≥ 500 nM
COc1c(Nc2cc(Nc3ccc(OC[C@H](O)CO)cn3)ncc2C(=O)C2CC2)cccc1-c1ncn(C)n1 [Compound 18J]	5 to 50 nM	≥ 500 nM	≥ 500 nM	≥ 500 nM
CCC(=O)c1cnc(Nc2cnc(O[C@@H]3CCN(CC(F)F)C3)cn2)cc1Nc1cccc(-c2ncn(C)n2)c1OC [Compound 18KKK]	5 to 50 nM	≥ 500 nM	≥ 500 nM	≥ 500 nM
CCC(=O)c1cnc(Nc2ccnc(O[C@H]3CCN(C)C3)n2)cc1Nc1cccc(-c2ncn(C)n2)c1OC [Compound 18KK]	5 to 50 nM	≥ 500 nM	≥ 500 nM	≥ 500 nM
COc1c(Nc2cc(Nc3ccc(OC(CO)CO)cn3)ncc2C(=O)C2CC2)cccc1-c1ncn(C)n1 [Compound 18K]	5 to 50 nM	≥ 500 nM	≥ 500 nM	≥ 500 nM
CCC(=O)c1cnc(Nc2cnc(O[C@@H]3CCN(CC(F)(F)F)C3)cn2)cc1Nc1cccc(-c2ncn(C)n2)c1OC [Compound 18LLL]	5 to 50 nM	≥ 500 nM	≥ 500 nM	≥ 500 nM
CCC(=O)c1cnc(Nc2ccnc(O[C@@H]3CCN(C)C3)n2)cc1Nc1cccc(-c2ncn(C)n2)c1OC [Compound 18LL]	5 to 50 nM	≥ 500 nM	≥ 500 nM	≥ 500 nM
CCC(=O)c1cnc(Nc2ccc(OC(C)(C)C(=O)O)c(C)n2)cc1Nc1cccc(-c2ncn(C)n2)c1OC [Compound 18L]	≥ 500 nM	50 to 500 nM	≥ 500 nM	50 to 500 nM
CCC(=O)c1cnc(Nc2cnc(O[C@@H]3C[C@H](C)N(C)C3)cn2)cc1Nc1cccc(-c2ncn(C)n2)c1OC [Compound 18MMM]	5 to 50 nM	≥ 500 nM	≥ 500 nM	≥ 500 nM
CCC(=O)c1cnc(Nc2cnc(OCCN)cn2)cc1Nc1cccc(-c2ncn(C)n2)c1OC [Compound 18MM]	< 5 nM	≥ 500 nM	≥ 500 nM	≥ 500 nM
CCC(=O)c1cnc(Nc2ccc(OCCO)nn2)cc1Nc1cccc(-c2ncn(C)n2)c1OC [Compound 18M]	< 5 nM	≥ 500 nM	≥ 500 nM	≥ 500 nM
[2H]C([2H])([2H])N1CC[C@@H](Oc2cnc(Nc3cc(Nc4cccc(-c5ncn(C)n5)c4OC)c(C(=O)CC)cn3)cn2)C1 [Compound 18NNN]	5 to 50 nM	≥ 500 nM	≥ 500 nM	≥ 500 nM
CCC(=O)c1cnc(Nc2cnc(OCCNC)cn2)cc1Nc1cccc(-c2ncn(C)n2)c1OC [Compound 18NN]	< 5 nM	≥ 500 nM	≥ 500 nM	≥ 500 nM
CCC(=O)c1cnc(Nc2ccc(OCCCO)nn2)cc1Nc1cccc(-c2ncn(C)n2)c1OC [Compound 18N]	< 5 nM	≥ 500 nM	≥ 500 nM	≥ 500 nM
CCC(=O)c1cnc(Nc2cnc(O[C@@H]3CCCN(C)C3)cn2)cc1Nc1cccc(-c2ncn(C)n2)c1OC [Compound 18PPP]	5 to 50 nM	≥ 500 nM	≥ 500 nM	≥ 500 nM
CCC(=O)c1cnc(Nc2cnc(OCCN3CC(F)C3)cn2)cc1Nc1cccc(-c2ncn(C)n2)c1OC [Compound 18PP]	5 to 50 nM	≥ 500 nM	≥ 500 nM	≥ 500 nM
CCC(=O)c1cnc(Nc2cnc(OCCO)cn2)cc1Nc1cccc(-c2ncn(C)n2)c1OC [Compound 18P]	5 to 50 nM	≥ 500 nM	≥ 500 nM	≥ 500 nM
CCC(=O)c1cnc(Nc2cnc(O[C@H]3CCCN(C)C3)cn2)cc1Nc1cccc(-c2ncn(C)n2)c1OC [Compound 18QQQ]	5 to 50 nM	≥ 500 nM	≥ 500 nM	≥ 500 nM
CCC(=O)c1cnc(Nc2cnc(OCCN3CC(F)(F)C3)cn2)cc1Nc1cccc(-c2ncn(C)n2)c1OC [Compound 18QQ]	5 to 50 nM	≥ 500 nM	≥ 500 nM	≥ 500 nM
CCC(=O)c1cnc(Nc2cnc(OCCCO)cn2)cc1Nc1cccc(-c2ncn(C)n2)c1OC [Compound 18Q]	5 to 50 nM	≥ 500 nM	≥ 500 nM	≥ 500 nM

Structure (SMILES)	IC50 (TYK2 JH2 domain)	IC50 (human JAK2)	IC50 (human JAK1)	IC50 (human JAK3)
CCC(=O)c1cnc(Nc2cnc(O[C@H]3CN(C)CC3(F)F)cn2)cc1Nc1cccc(-c2ncn(C)n2)c1OC [Compound 18RRR]	5 to 50 nM	≥ 500 nM	≥ 500 nM	≥ 500 nM
CCC(=O)c1cnc(Nc2cnc(OCCN3CC(C#N)C3)cn2)cc1Nc1cccc(-c2ncn(C)n2)c1OC [Compound 18RR]	5 to 50 nM	≥ 500 nM	≥ 500 nM	≥ 500 nM
CCC(=O)c1cnc(Nc2ccc(O[C@H]3COC[C@@H]3O)cn2)cc1Nc1cccc(-c2ncn(C)n2)c1OC [Compound 18R]	< 5 nM	≥ 500 nM	≥ 500 nM	50 to 500 nM
CCC(=O)c1cnc(Nc2cnc(O[C@@H]3CCN(C)C[C@@H]3F)cn2)cc1Nc1cccc(-c2ncn(C)n2)c1OC [Compound 18SSS]	5 to 50 nM	≥ 500 nM	≥ 500 nM	≥ 500 nM
CCC(=O)c1cnc(Nc2cnc(O[C@@H]3CCNC3)cn2)cc1Nc1cccc(-c2ncn(C)n2)c1OC [Compound 18SS]	5 to 50 nM	≥ 500 nM	≥ 500 nM	≥ 500 nM
CCC(=O)c1cnc(Nc2ccc(O[C@H]3CN(C)C[C@@H]3O)cn2)cc1Nc1cccc(-c2ncn(C)n2)c1OC [Compound 18S]	5 to 50 nM	≥ 500 nM	≥ 500 nM	50 to 500 nM
CCC(=O)c1cnc(Nc2cnc(O[C@H]3CCN(C)C[C@@H]3F)cn2)cc1Nc1cccc(-c2ncn(C)n2)c1OC [Compound 18TTT]	5 to 50 nM	≥ 500 nM	≥ 500 nM	≥ 500 nM
CCC(=O)c1cnc(Nc2cnc(O[C@H]3CCN(C)C3)cn2)cc1Nc1cccc(-c2ncn(C)n2)c1OC [Compound 18TT]	< 5 nM	≥ 500 nM	≥ 500 nM	≥ 500 nM
COc1c(Nc2cc(Nc3ccc(OCCN(C)C)cn3)ncc2C(=O)C2CC2)cccc1-c1ncn(C)n1 [Compound 18T]	5 to 50 nM	≥ 500 nM	≥ 500 nM	≥ 500 nM
CCC(=O)c1cnc(Nc2ccc(O[C@H]3CN(C)C[C@@H]3F)cn2)cc1Nc1cccc(-c2ncn(C)n2)c1OC [Compound 18UUU]	< 5 nM	≥ 500 nM	≥ 500 nM	≥ 500 nM
CCC(=O)c1cnc(Nc2cnc(O[C@@H]3CCN(C)C3)cn2)cc1Nc1cccc(-c2ncn(C)n2)c1OC [Compound 18UU]	5 to 50 nM	≥ 500 nM	≥ 500 nM	≥ 500 nM
CCC(=O)c1cnc(Nc2ccc(OC3CN(C)C3)cn2)cc1Nc1cccc(-c2ncn(C)n2)c1OC [Compound 18U]	< 5 nM	≥ 500 nM	≥ 500 nM	≥ 500 nM
CCC(=O)c1cnc(Nc2ccc(O[C@@H]3CCN(C)C3)cn2)cc1Nc1cccc(-c2ncc(F)cn2)c1OC [Compound 18VVV]	5 to 50 nM	≥ 500 nM	≥ 500 nM	50 to 500 nM
CCC(=O)c1cnc(Nc2cnc(OCCN3CCCC3)cn2)cc1Nc1cccc(-c2ncn(C)n2)c1OC [Compound 18VV]	< 5 nM	≥ 500 nM	≥ 500 nM	≥ 500 nM
CCC(=O)c1cnc(Nc2ccc(O[C@@H]3CCN(C)C3)cn2)cc1Nc1cccc(-c2ncn(C)n2)c1OC [Compound 18V]	< 5 nM	≥ 500 nM	≥ 500 nM	50 to 500 nM
CCC(=O)c1cnc(Nc2ccc(O[C@@H]3CCN(C)C3)cn2)cc1Nc1cc(F)cc(-c2ncn(C)n2)c1OC [Compound 18WWW]	< 5 nM	≥ 500 nM	≥ 500 nM	≥ 500 nM
CCC(=O)c1cnc(Nc2cnc(OCCCN3CCCC3)cn2)cc1Nc1cccc(-c2ncn(C)n2)c1OC [Compound 18WW]	< 5 nM	≥ 500 nM	≥ 500 nM	≥ 500 nM
CCC(=O)c1cnc(Nc2ccc(O[C@H]3CCN(C)C3)cn2)cc1Nc1cccc(-c2ncn(C)n2)c1OC [Compound 18W]	< 5 nM	≥ 500 nM	≥ 500 nM	≥ 500 nM
CCC(=O)c1cnc(Nc2ncc(O[C@@H]3CCN(C)C3)cc2F)cc1Nc1cccc(-c2ncn(C)n2)c1OC [Compound 18XXX]	5 to 50 nM	≥ 500 nM	≥ 500 nM	≥ 500 nM
CCC(=O)c1cnc(Nc2cnc(OCCN3CC[C@H](F)C3)cn2)cc1Nc1cccc(-c2ncn(C)n2)c1OC [Compound 18XX]	5 to 50 nM	≥ 500 nM	≥ 500 nM	≥ 500 nM
[2H]C([2H])([2H])N1CC[C@@H](Oc2ccc(Nc3cc(Nc4cccc(-c5ncn(C)n5)c4OC)c(C(=O)CC)cn3)nc2)C1 [Compound 18X]	< 5 nM	≥ 500 nM	≥ 500 nM	50 to 500 nM
